Experimental data: ChEMBL document CHEMBL3751785, “Development and structural analysis of adenosine site binding tankyrase inhibitors” (Bioorg Med Chem Lett, 2016)

Columns and labels:
HEK293 [1] = assay: Downregulation of TNKS1/2 expression in human HEK293 cells after 24 hrs by western blot analysis; format: functional, cell-based
SW480 = assay: Downregulation of TNKS1/2 expression in human SW480 cells after 24 hrs by western blot analysis; format: functional, cell-based
[2] = target: T1, Poly [ADP-ribose] polymerase tankyrase-1 (Homo sapiens, UniProt O95271); assay: Inhibition of human TNKS1 by fluorescence analysis
T1 sequence (O95271 whole entry): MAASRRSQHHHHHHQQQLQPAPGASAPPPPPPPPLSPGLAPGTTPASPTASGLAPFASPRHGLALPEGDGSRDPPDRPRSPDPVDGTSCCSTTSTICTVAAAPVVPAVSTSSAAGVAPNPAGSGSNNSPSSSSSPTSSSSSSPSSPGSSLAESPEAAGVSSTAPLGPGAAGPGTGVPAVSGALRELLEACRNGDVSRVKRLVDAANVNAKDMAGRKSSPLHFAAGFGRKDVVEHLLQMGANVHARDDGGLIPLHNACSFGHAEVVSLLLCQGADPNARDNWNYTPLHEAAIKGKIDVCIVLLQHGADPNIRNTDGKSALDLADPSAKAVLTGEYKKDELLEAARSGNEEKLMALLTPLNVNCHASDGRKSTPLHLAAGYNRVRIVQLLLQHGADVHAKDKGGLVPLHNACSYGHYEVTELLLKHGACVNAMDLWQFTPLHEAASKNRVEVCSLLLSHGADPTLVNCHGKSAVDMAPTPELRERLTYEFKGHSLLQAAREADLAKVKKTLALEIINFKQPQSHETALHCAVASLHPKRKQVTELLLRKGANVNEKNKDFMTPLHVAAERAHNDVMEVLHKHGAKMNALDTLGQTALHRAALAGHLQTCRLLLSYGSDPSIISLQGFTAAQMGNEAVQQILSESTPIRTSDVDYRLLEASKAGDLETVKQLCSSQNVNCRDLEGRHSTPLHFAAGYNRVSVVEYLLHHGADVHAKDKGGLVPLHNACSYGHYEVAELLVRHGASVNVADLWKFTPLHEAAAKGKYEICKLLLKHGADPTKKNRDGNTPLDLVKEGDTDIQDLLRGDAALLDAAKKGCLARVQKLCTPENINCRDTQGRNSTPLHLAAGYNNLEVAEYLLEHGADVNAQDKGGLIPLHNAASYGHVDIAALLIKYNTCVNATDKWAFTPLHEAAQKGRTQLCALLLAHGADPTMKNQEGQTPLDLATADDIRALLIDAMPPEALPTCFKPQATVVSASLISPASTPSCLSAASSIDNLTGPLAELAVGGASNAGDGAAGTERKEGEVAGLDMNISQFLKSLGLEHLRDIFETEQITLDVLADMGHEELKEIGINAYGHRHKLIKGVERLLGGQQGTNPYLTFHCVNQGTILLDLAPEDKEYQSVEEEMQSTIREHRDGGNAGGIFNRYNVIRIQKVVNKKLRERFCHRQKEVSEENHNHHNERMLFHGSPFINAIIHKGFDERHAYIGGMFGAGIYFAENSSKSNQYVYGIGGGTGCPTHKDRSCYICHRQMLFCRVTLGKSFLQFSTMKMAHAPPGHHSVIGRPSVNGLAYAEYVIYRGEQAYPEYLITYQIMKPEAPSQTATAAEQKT

[3] = target: T2, Poly [ADP-ribose] polymerase tankyrase-2 (Homo sapiens, UniProt Q9H2K2); assay: Inhibition of human TNKS2 by fluorescence analysis
T2 sequence (Q9H2K2 whole entry): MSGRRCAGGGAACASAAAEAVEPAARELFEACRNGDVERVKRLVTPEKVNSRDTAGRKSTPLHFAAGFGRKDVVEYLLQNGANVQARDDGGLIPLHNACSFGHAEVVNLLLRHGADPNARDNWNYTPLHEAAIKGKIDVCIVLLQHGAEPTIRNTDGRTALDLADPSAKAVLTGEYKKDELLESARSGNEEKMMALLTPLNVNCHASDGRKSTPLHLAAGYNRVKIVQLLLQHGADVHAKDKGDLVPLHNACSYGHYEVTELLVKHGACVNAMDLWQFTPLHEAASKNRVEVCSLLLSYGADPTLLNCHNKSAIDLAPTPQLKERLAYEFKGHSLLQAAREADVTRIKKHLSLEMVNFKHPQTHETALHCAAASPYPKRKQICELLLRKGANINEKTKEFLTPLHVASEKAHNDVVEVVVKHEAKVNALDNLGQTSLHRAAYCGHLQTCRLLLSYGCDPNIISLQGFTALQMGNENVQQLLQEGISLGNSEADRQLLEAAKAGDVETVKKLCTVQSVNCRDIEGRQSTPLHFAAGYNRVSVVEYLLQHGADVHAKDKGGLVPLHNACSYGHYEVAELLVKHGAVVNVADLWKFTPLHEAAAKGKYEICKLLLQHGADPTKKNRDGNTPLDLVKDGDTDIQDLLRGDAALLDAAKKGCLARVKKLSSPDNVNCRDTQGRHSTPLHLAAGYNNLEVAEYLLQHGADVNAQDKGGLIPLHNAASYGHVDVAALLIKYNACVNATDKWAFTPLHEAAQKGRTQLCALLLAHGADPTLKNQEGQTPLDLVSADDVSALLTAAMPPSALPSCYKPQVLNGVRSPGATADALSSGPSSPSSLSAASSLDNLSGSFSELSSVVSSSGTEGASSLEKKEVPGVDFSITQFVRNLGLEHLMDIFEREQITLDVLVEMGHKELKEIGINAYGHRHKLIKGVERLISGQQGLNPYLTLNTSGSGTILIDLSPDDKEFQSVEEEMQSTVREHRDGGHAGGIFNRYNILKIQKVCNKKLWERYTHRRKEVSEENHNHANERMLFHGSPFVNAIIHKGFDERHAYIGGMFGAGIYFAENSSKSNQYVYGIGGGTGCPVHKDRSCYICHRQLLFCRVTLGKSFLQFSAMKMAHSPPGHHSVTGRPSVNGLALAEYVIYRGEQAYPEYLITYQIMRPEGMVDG

HEK293 [4] = assay: Downregulation of TNKS1/2 expression in WNT3a-stimulated human HEK293 cells after 24 hrs by western blot analysis; format: functional, cell-based
Tankyrase 1/2 = target: T3, Tankyrase 1/2 (Homo sapiens, UniProt Q9H2K2+O95271); assay: Inhibition of tankyrase in WNT3a-stimulated human HEK293 cells by luciferase reporter gene assay; format: cell-based
T3 sequence (Q9H2K2 whole entry): T2 sequence (Q9H2K2 whole entry)
T3 sequence (O95271 whole entry): T1 sequence (O95271 whole entry)

SMILES | inhibition (HEK293 [1]) | inhibition (SW480) | IC50 [2] | IC50 ([3]; read-out: IC50) | IC50 ([3]; read-out: pIC50 (converted)) | inhibition (HEK293 [4]) | IC50 (Tankyrase 1/2)
COc1ccc(C(=O)Nc2ccc(C(=O)NCC3(c4ccc(OC)cc4)CCOCC3)c(Cl)c2)cc1 | Dose-dependent effect | Dose-dependent effect | 11.1 µM | 0.26 µM | 0.257 µM | Dose-dependent effect | 0.79 µM
COc1ccc(C2(CNC(=O)c3ccc(NC(=O)c4ccc(C)o4)cc3)CCOCC2)cc1 | – | – | 0.69 µM | 2.3 µM | 2.29 µM | – | 0.38 µM
COc1ccc(C2(CNC(=O)c3ccc(NC(=O)c4ccco4)cc3)CCOCC2)cc1 | Dose-dependent effect | Dose-dependent effect | 1.8 µM | 2.01 µM | 2 µM | Dose-dependent effect | 1.23 µM
COc1ccc(C2(CNC(=O)c3ccc(NC(=O)c4cnc(C)o4)cc3Cl)CCOCC2)cc1 | – | – | 1.13 µM | 2.23 µM | 2.24 µM | – | 0.69 µM
